Where a name gives a salt, the structure may show the parent alone. Read-outs that look alike come from different tables or passages of the source.
Key:
[1] = system: LNCaP (human prostate cancer cells); experiment: Anti-proliferative activity on LNCaP cell line (WST1 colorimetric test); type: cell-based; settings: treated for 96 hours, read-out: IC50 on the cell proliferation of the LNCaP lines
Procedure: (§1) By way of example, the effect of a treatment on three human cell lines DU145, LNCaP and A2058 with the compounds of the examples described previously will be studied. The cell lines DU145 and LNCaP (human prostate cancer cells) and A2058 (human melanoma cancer cells) were acquired from the American Tissue Culture Collection (Rockville, Md., USA). The cells placed in 80 μl of Dulbecco's Modified Eagle medium (Gibco-Brl, Cergy-Pontoise, France) completed with 10% foetal calf serum inactivated by heating (Gibco-Brl, Cergy-Pontoise, France), 50000 units/l of penicillin and 50 mg/l streptomycin (Gibco-Brl, Cergy-Pontoise, France), and 2 mM of glutamin (Gibco-Brl, Cergy-Pontoise, France) were seeded on a 96-well plate on day 0. The cells were treated on day 1 for 96 hours with increasing concentrations of each of the compounds to be tested up to 10 μM. At the end of this period, the quantification of the cell proliferation is evaluated by a colorimetric test based on the cleavage of the tetrazolium salt WST1 by mitochondrial dehydrogenases in the viable cells leading to the formation of formazan (Boehringer Mannheim, Meylan, France). These tests are carried out in duplicate with 8 determinations per tested concentration. For each compound to be tested, the values included in the linear part of the sigmoid were retained for linear regression analysis and used in order to estimate the inhibitory concentration IC50. The products are solubilized in dimethylsulphoxide (DMSO) at 10^−2 M and finally used in culture with 0.1% DMSO.

[2] = system: DU145 (human prostate cancer cells); experiment: Anti-proliferative activity on DU145 cell line (WST1 colorimetric test); type: cell-based; settings: DU-145, treated for 96 hours, read-out: IC50 on the cell proliferation of the DU145 lines
Procedure: as §1

[3] = system: A2058 (human melanoma cancer cells); experiment: Anti-proliferative activity on A2058 cell line (WST1 colorimetric test); type: cell-based; settings: treated for 96 hours, read-out: IC50 on the cell proliferation of the A2058 lines
Procedure: as §1

| Structure (SMILES) | IC50 [1] | IC50 ([2]; unit inferred) | IC50 [3] | melting point | also measured |
| --- | --- | --- | --- | --- | --- |
| CC(C)(C)OC(=O)N[C@@H](CSSC[C@H](NC(=O)OC(C)(C)C)C(=O)N1CCn2nc(-c3ccncc3)cc2C1CCc1ccccc1)C(=O)N1CCn2nc(-c3ccncc3)cc2C1CCc1ccccc1 (mixture of isomers) [Example 3, tert-butyl {(1R)-1-[({(2R)-2-[(tert-butoxycarbonyl)amino]-3-oxo-3-[(4RS)-4-(2-phenylethyl)-2-pyridin-4-yl-6,7-dihydropyrazolo[1,5-a]pyrazin-5(4H)-yl]propyl}dithio)methyl]-2-oxo-2-[(4RS)-4-(2-phenylethyl)-2-pyridin-4-yl-6,7-dihydropyrazolo[1,5-a]pyrazin-5(4H)-yl]ethyl}carbamate] | ≤ 10 µM |  |  |  |  |
| N[C@@H](CSSC[C@H](N)C(=O)N1CCn2nc(-c3ccccc3)cc2C1CC1CCCCC1)C(=O)N1CCn2nc(-c3ccccc3)cc2C1CC1CCCCC1 (mixture of isomers) [Example 12, (2R)-3-({(2R)-2-amino-3-[(4RS)-4-(cyclohexylmethyl)-2-phenyl-6,7-dihydropyrazolo[1,5-a]pyrazin-5(4H)-yl]-3-oxopropyl}dithio)-1-[(4RS)-4-(cyclohexylmethyl)-2-phenyl-6,7-dihydropyrazolo[1,5-a]pyrazin-5(4H)-yl]-1-oxopropan-2-amine hydrochloride] | ≤ 1 µM |  |  |  | IC50 [2]: ≤ 10 µM; IC50 ([3]; bound given in mM): ≤ 0.01 mM |
| CCCCC1c2cc(-c3ccccc3)nn2CCN1C(=O)[C@H](CSSC[C@H](NC(=O)OC(C)(C)C)C(=O)N1CCn2nc(-c3ccccc3)cc2C1CCCC)NC(=O)OC(C)(C)C (mixture of isomers) [Example 10, tert-butyl {(1R)-1-[({(2R)-2-[(tert-butoxycarbonyl)amino]-3-[(4RS)-4-butyl-2-phenyl-6,7-dihydropyrazolo[1,5-a]pyrazin-5(4H)-yl]-3-oxopropyl}dithio)methyl]-2-[(4RS)-4-butyl-2-phenyl-6,7-dihydropyrazolo[1,5-a]pyrazin-5(4H)-yl]-2-oxoethyl}carbamate] |  |  |  | 95 to 102 °C |  |
| CC(C)(C)OC(=O)N[C@@H](CSSC[C@H](NC(=O)OC(C)(C)C)C(=O)N1CCCn2nc(-c3ccccc3)cc2C1CC1CCCCC1)C(=O)N1CCCn2nc(-c3ccccc3)cc2C1CC1CCCCC1 (mixture of isomers) [Example 27, tert-butyl {(1R)-1-[({(2R)-2-[(tert-butoxycarbonyl)amino]-3-[(4RS)-4-(cyclohexylmethyl)-2-phenyl-7,8-dihydro-4H-pyrazolo[1,5-a][1,4]diazepin-5(6H)-yl]-3-oxopropyl}dithio)methyl]-2-[(4RS)-4-(cyclohexylmethyl)-2-phenyl-7,8-dihydro-4H-pyrazolo[1,5-a][1,4]diazepin-5(6H)-yl]-2-oxoethyl}carbamate] |  |  |  | 105 to 116 °C |  |
| CC(C)(C)OC(=O)N[C@@H](CSSC[C@H](NC(=O)OC(C)(C)C)C(=O)N1CCn2nc(-c3ccccc3)cc2[C@@H]1CC1CCCCC1)C(=O)N1CCn2nc(-c3ccccc3)cc2[C@@H]1CC1CCCCC1 [Example 23, tert-butyl {(1R)-1-[({(2R)-2-[(tert-butoxycarbonyl)amino]-3-[(4S)-4-(cyclohexylmethyl)-2-phenyl-6,7-dihydropyrazolo[1,5-a]pyrazin-5(4H)-yl]-3-oxopropyl}dithio)methyl]-2-[(4S)-4-(cyclohexylmethyl)-2-phenyl-6,7-dihydropyrazolo[1,5-a]pyrazin-5(4H)-yl]-2-oxoethyl}carbamate] |  |  |  | 106 to 108 °C |  |
| CC(C)(C)OC(=O)N[C@@H](CSSC[C@H](NC(=O)OC(C)(C)C)C(=O)N1CCn2nc(-c3ccccc3)cc2[C@H]1CC1CCCCC1)C(=O)N1CCn2nc(-c3ccccc3)cc2[C@H]1CC1CCCCC1 [Example 25, tert-butyl {(1R)-1-[({(2R)-2-[(tert-butoxycarbonyl)amino]-3-[(4R)-4-(cyclohexylmethyl)-2-phenyl-6,7-dihydropyrazolo[1,5-a]pyrazin-5(4H)-yl]-3-oxopropyl}dithio)methyl]-2-[(4R)-4-(cyclohexylmethyl)-2-phenyl-6,7-dihydropyrazolo[1,5-a]pyrazin-5(4H)-yl]-2-oxoethyl}carbamate] |  |  |  | 114 to 139 °C |  |

Second part, led by results:

| IC50 [1] | IC50 ([2]; unit inferred) | IC50 [3] | Structure (SMILES) | melting point | also measured |
| --- | --- | --- | --- | --- | --- |
| ≤ 1 µM | ≤ 15 µM |  | N[C@@H](CSSC[C@H](N)C(=O)N1CCn2nc(-c3ccccc3)cc2C1CCc1ccccc1)C(=O)N1CCn2nc(-c3ccccc3)cc2C1CCc1ccccc1 (mixture of isomers) [Example 13, (2R)-3-({(2R)-2-amino-3-oxo-3-[(4RS)-2-phenyl-4-(2-phenylethyl)-6,7-dihydropyrazolo[1,5-a]pyrazin-5(4H)-yl]propyl}dithio)-1-oxo-1-[(4RS)-2-phenyl-4-(2-phenylethyl)-6,7-dihydropyrazolo[1,5-a]pyrazin-5(4H)-yl]propan-2-amine hydrochloride] |  | IC50 ([3]; bound given in mM): ≤ 0.01 mM |
| ≤ 10 µM |  | ≤ 0.03 mM | N[C@@H](CSSC[C@H](N)C(=O)N1CCn2nc(-c3ccncc3)cc2C1CCc1ccccc1)C(=O)N1CCn2nc(-c3ccncc3)cc2C1CCc1ccccc1 (mixture of isomers) [Example 14, (2R)-3-({(2R)-2-amino-3-oxo-3-[(4RS)-4-(2-phenylethyl)-2-pyridin-4-yl-6,7-dihydropyrazolo[1,5-a]pyrazin-5(4H)-yl]propyl}dithio)-1-oxo-1-[(4RS)-4-(2-phenylethyl)-2-pyridin-4-yl-6,7-dihydropyrazolo[1,5-a]pyrazin-5(4H)-yl]propan-2-amine hydrochloride] |  |  |
| ≤ 10 µM |  | ≤ 0.02 mM | N[C@@H](CSSC[C@H](N)C(=O)N1CCn2nc(-c3cccnc3)cc2C1CCc1ccccc1)C(=O)N1CCn2nc(-c3cccnc3)cc2C1CCc1ccccc1 (mixture of isomers) [Example 15, (2R)-3-({(2R)-2-amino-3-oxo-3-[(4RS)-4-(2-phenylethyl)-2-pyridin-3-yl-6,7-dihydropyrazolo[1,5-a]pyrazin-5(4H)-yl]propyl}dithio)-1-oxo-1-[(4RS)-4-(2-phenylethyl)-2-pyridin-3-yl-6,7-dihydropyrazolo[1,5-a]pyrazin-5(4H)-yl]propan-2-amine hydrochloride] |  |  |
| ≤ 10 µM |  | ≤ 0.03 mM | N[C@@H](CSSC[C@H](N)C(=O)N1CCn2nc(-c3ccc4c(c3)OCO4)cc2C1CCc1ccccc1)C(=O)N1CCn2nc(-c3ccc4c(c3)OCO4)cc2C1CCc1ccccc1 (mixture of isomers) [Example 16, (2R)-3-({(2R)-2-amino-3-[(4RS)-2-(1,3-benzodioxol-5-yl)-4-(2-phenylethyl)-6,7-dihydropyrazolo[1,5-a]pyrazin-5(4H)-yl]-3-oxopropyl}dithio)-1-[(4RS)-2-(1,3-benzodioxol-5-yl)-4-(2-phenylethyl)-6,7-dihydropyrazolo[1,5-a]pyrazin-5(4H)-yl]-1-oxopropan-2-amine hydrochloride] |  | IC50 [2]: ≤ 20 µM |
| ≤ 10 µM | ≤ 15 µM | ≤ 0.02 mM | COc1cc(-c2cc3n(n2)CCN(C(=O)[C@@H](N)CSSC[C@H](N)C(=O)N2CCn4nc(-c5cc(OC)c(OC)c(OC)c5)cc4C2CCc2ccccc2)C3CCc2ccccc2)cc(OC)c1OC (mixture of isomers) [Example 17, (2R)-3-({(2R)-2-amino-3-oxo-3-[(4RS)-4-(2-phenylethyl)-2-(3,4,5-trimethoxyphenyl)-6,7-dihydropyrazolo[1,5-a]pyrazin-5(4H)-yl]propyl}dithio)-1-oxo-1-[(4RS)-4-(2-phenylethyl)-2-(3,4,5-trimethoxyphenyl)-6,7-dihydropyrazolo[1,5-a]pyrazin-5(4H)-yl]propan-2-amine hydrochloride] |  |  |
| ≤ 5 µM | ≤ 15 µM | ≤ 0.02 mM | N[C@@H](CSSC[C@H](N)C(=O)N1CCn2nc(-c3cccs3)cc2C1CCc1ccccc1)C(=O)N1CCn2nc(-c3cccs3)cc2C1CCc1ccccc1 (mixture of isomers) [Example 18, (2R)-3-({(2R)-2-amino-3-oxo-3-[(4RS)-4-(2-phenylethyl)-2-(2-thienyl)-6,7-dihydropyrazolo[1,5-a]pyrazin-5(4H)-yl]propyl}dithio)-1-oxo-1-[(4RS)-4-(2-phenylethyl)-2-(2-thienyl)-6,7-dihydropyrazolo[1,5-a]pyrazin-5(4H)-yl]propan-2-amine hydrochloride] |  |  |
| ≤ 5 µM | ≤ 15 µM | ≤ 0.02 mM | N[C@@H](CSSC[C@H](N)C(=O)N1CCn2nc(-c3ccco3)cc2C1CCc1ccccc1)C(=O)N1CCn2nc(-c3ccco3)cc2C1CCc1ccccc1 (mixture of isomers) [Example 19, (2R)-3-({(2R)-2-amino-3-[(4RS)-2-(2-furyl)-4-(2-phenylethyl)-6,7-dihydropyrazolo[1,5-a]pyrazin-5(4H)-yl]-3-oxopropyl}dithio)-1-[(4RS)-2-(2-furyl)-4-(2-phenylethyl)-6,7-dihydropyrazolo[1,5-a]pyrazin-5(4H)-yl]-1-oxopropan-2-amine hydrochloride] |  |  |

Source: patent US20100222332A1, “PYRAZOLO-PYRAZINES DERIVATIVES USED AS G PROTEIN INHIBITORS” (Ipsen Pharma S.A.S., priority 2007, published 2010)
